Paper PMC4987650, “Structural Investigation of Park’s Nucleotide on Bacterial Translocase MraY: Discovery of Unexpected MraY Inhibitors” (Scientific Reports, 2016)

How the values were obtained:
Assay type in all cases: biochemical
MraYBS T53A mutant [1] = biological target: T1, MraYBS T53A mutant (Bacillus subtilis, UniProt Q03521, T53A); assay: HPLC-based MraY functional assay, mutant MraY; settings: consumption of 6 in one-hour reaction
T1 construct: MBP; made in house
Protocol: (§1) The purified MraY from Bacillus subtilis was prepared as described in our previous reports. For 5 and 7–10, the reaction mixture containing MraYBS (10 μg/mL), C55P (200 μM) in 40 μL reaction buffer (30 mM Tris, 10 mM MgCl2, 10 mM NaCl, 0.1 mM Tween-20, 2.5% DMSO, pH 8.0) were pre-incubated at 37 °C for 15 min. The reactions were initiated by the addition of Park’s nucleotide analogues (10 μM) and incubated at 37 °C for 1 h. The reaction mixtures were added by uridine (0.01 mg/mL) as the internal standard and heated to 100 °C to stop the transferring reaction. The samples were analyzed by RP-C18 HPLC with gradient elution of 0.25 M NH4HCO3(aq)/15% MeOH in water (100:0 to 0:100) at a flow rate of 1 mL/min over 45 min, and the peaks of substrates were monitored at UV 260 nm. […] The reaction mixtures were heated to 100 °C to stop the transferring reaction, and samples were analyzed by an anion-exchange column (SAX1, Supelco Co., 5 μm, 4.6 × 250 mm) with a linear gradient elution of NH4OAc (20 mM to 1 M in MeOH) at a flow rate of 1.0 mL/min over 30 min. The fluorescent substrates were monitored with λex 466 nm/λem 535 nm by fluorescence detector. […]

MraYBS K226A mutant [2] = biological target: T2, MraYBS K226A mutant (Bacillus subtilis, UniProt Q03521, K226A); assay: HPLC-based MraY functional assay, mutant MraY; settings: consumption of 6 in one-hour reaction
T2 construct: MBP; made in house
Protocol: as §1

MraYBS T51A mutant = biological target: T3, MraYBS T51A mutant (Bacillus subtilis, UniProt Q03521, T51A); assay: Fluorescent enhancement assay, mutant MraY; settings: 6 as the substrate
T3 construct: MBP; made in house
Protocol: (§2) Site–directed mutagenesis of MraY. Site-directed mutagenesis of the B. subtilis MBP-tagged MraY enzyme was performed directly on the pMAL -BS-MraY-16 expression plasmid by using the “Quickchanged XL Site-Directed Mutagenesis Kit ’’ from stratagene and the oligonucleotides shown below. Mutations introduced in the mraY gene sequence were checked by DNA sequencing. […]
(§3) MraY-T51A-R 5’-[…]-3’
(§4) T53A MraY-T53A-F 5’-[…]-3’
(§5) MraY-T53A-R 5’-[…]-3’
(§6) K102A MraY-K102A-F 5’-[…]-3’
(§7) MraY-K102A-R 5’-[…]-3’
(§8) K226A Mray-K226A-F 5’-[…]-3’ […]
(§9) F228A MraY-F228A-F 5’-[…]-3’
(§10) MraY-F228A-R 5’-[…]-3’
(§11) Q271A Mray-Q271A-F 5’-[…]-3’
(§12) Mray-Q271A-R 5’-[…]-3’
(§13) R281A MraY-R281A-F 5’-[…]-3’
(§14) MraY-R281A-R 5’-[…]-3’
(§15) W297A MraY-W297A-F 5’-[…]-3’
(§16) MraY-W297A-R 5’-[…]-3’
(§17) Determine kinetic parameters by MraY fluorescence enhancement assay. The fluorescence enhancement assay was performed in 384-well plate as described by Bugg et al. with slight modifications.5 The reaction mixture containing MraYBS (10 μg/mL), C55P (200 μM) in 30 μL reaction buffer (30 mM Tris, 10 mM MgCl2, 10 mM NaCl, 0.1 mM Tween-20, 2.5% DMSO, pH 8.0) were pre-incubated at 37 °C for 15 min. The reactions were initiated by the addition of various concentrations of NBD-Park’s nucleotide 6 (0 to 160 μM). For inhibition study, a various concentrations of inhibitors were added before the addition of substrate 6. The continuous fluorescence increase over 60 min was monitored with λex 466 nm/λem 535 nm by fluorescence microplate reader (SpectraMax M5, Molecular Devices, LLC) at 37 °C. Linear regressions of increased fluorescent units (FLU) versus time (min) were used to calculate the initial velocities for each reaction. The kinetic parameters values (Ki, KM, and Vmax) were obtained by nonlinear regression analysis using the […] equation with the GraphPad Prism program (GraphPad Software, San
(§18) (1 picture or pasted object on this page, not shown here)

MraYBS Q271A mutant [3] = biological target: T4, MraYBS Q271A mutant (Bacillus subtilis, UniProt Q03521, Q271A); assay: Fluorescent enhancement assay, mutant MraY; settings: 6 as the substrate
T4 construct: MBP; made in house
Protocol: as §2, §3, §4, §5, §6, §7, §8, §9, §10, §11, §12, §13, §14, §15, §16, §17, §18

MraYBS R281A mutant = biological target: T5, MraYBS R281A mutant (Bacillus subtilis, UniProt Q03521, R281A); assay: Fluorescent enhancement assay, mutant MraY; settings: 6 as the substrate
T5 construct: MBP; made in house
Protocol: as §2, §3, §4, §5, §6, §7, §8, §9, §10, §11, §12, §13, §14, §15, §16, §17, §18

MraYBS K102A mutant = biological target: T6, MraYBS K102A mutant (Bacillus subtilis, UniProt Q03521, K102A); assay: Fluorescent enhancement assay, mutant MraY; settings: 6 as the substrate
T6 construct: MBP; made in house
Protocol: as §2, §3, §4, §5, §6, §7, §8, §9, §10, §11, §12, §13, §14, §15, §16, §17, §18

MraYBS F228A mutant = biological target: T7, MraYBS F228A mutant (Bacillus subtilis, UniProt Q03521, F228A); assay: Fluorescent enhancement assay, mutant MraY; settings: 6 as the substrate
T7 construct: MBP; made in house
Protocol: as §2, §3, §4, §5, §6, §7, §8, §9, §10, §11, §12, §13, §14, §15, §16, §17, §18

MraYBS W297A mutant = biological target: T8, MraYBS W297A mutant (Bacillus subtilis, UniProt Q03521, W297A); assay: Fluorescent enhancement assay, mutant MraY; settings: 6 as the substrate
T8 construct: MBP; made in house
Protocol: as §2, §3, §4, §5, §6, §7, §8, §9, §10, §11, §12, §13, §14, §15, §16, §17, §18

MraYBS T53A mutant [4] = biological target: T1, MraYBS T53A mutant; assay: Fluorescent enhancement assay, mutant MraY; settings: 6 as the substrate
Protocol: as §2, §3, §4, §5, §6, §7, §8, §9, §10, §11, §12, §13, §14, §15, §16, §17, §18

MraYBS K226A mutant [5] = biological target: T2, MraYBS K226A mutant; assay: Fluorescent enhancement assay, mutant MraY; settings: 6 as the substrate
Protocol: as §2, §3, §4, §5, §6, §7, §8, §9, §10, §11, §12, §13, §14, §15, §16, §17, §18

MraYBS Q271A mutant [6] = biological target: T4, MraYBS Q271A mutant; assay: HPLC-based MraY functional assay, mutant MraY; settings: consumption of 6 in one-hour reaction
Protocol: as §1

Compound: CC(=O)N[C@H]1[C@@H](OP(=O)(O)OP(=O)(O)OC[C@H]2O[C@@H](n3ccc(=O)[nH]c3=O)[C@H](O)[C@@H]2O)O[C@H](CO)[C@@H](O)[C@@H]1O[C@H](C)C(=O)N[C@@H](C)C(=O)N[C@H](CCC(=O)N[C@@H](CCCCNC(=O)CCCCCNc1ccc([N+](=O)[O-])c2nonc12)C(=O)N[C@H](C)C(=O)N[C@H](C)C(=O)O)C(=O)O [Compound 6, NBD-Park’s nucleotide]
- Relative activity (MraYBS T53A mutant [1]): 18%
- Relative activity (MraYBS K226A mutant [2]): 100%
- Vmax (MraYBS T51A mutant): 5 ± 0.2 FLU/min
- Vmax (MraYBS Q271A mutant [3]): 6 ± 1.7 FLU/min
- Vmax (MraYBS R281A mutant): 10 ± 1.4 FLU/min
- Vmax (MraYBS K102A mutant): 5 ± 0.2 FLU/min
- Vmax (MraYBS F228A mutant): 10 ± 1.5 FLU/min
- Vmax (MraYBS W297A mutant): 4 ± 0.4 FLU/min
- Vmax (MraYBS T53A mutant [4]): 7 ± 0.8 FLU/min
- Vmax (MraYBS K226A mutant [5]): 23 ± 4.7 FLU/min
- Relative activity (MraYBS Q271A mutant [6]): 16%
